Assay results as given in PMC8307506, “Identification of Dihydromyricetin and Metabolites in Serum and Brain Associated with Acute Anti-Ethanol Intoxicating Effects in Mice” (International Journal of Molecular Sciences, 2021).

Assays:
[1] = test system: P-glycoprotein (Pgp) efflux transporters; set-up: method as in PMID 33810134, PMID 25985195; conditions: cited from earlier work
[2] = set-up: method as in PMID 29969512; conditions: cited from earlier work
[3] = target: T1, α5β3γ2 GABAA receptors (Homo sapiens, UniProt P18507+P28472+P31644); experiment: Two-electrode voltage clamp electrophysiology in Xenopus oocytes in the presence of GABA; assay type: cell-based; conditions: compound 10 µM, GABA 10 µM
T1 construct: expressed in transfected cells; host or cells: Xenopus oocytes (injected with cDNA)
T1 sequence (P31644 32-462): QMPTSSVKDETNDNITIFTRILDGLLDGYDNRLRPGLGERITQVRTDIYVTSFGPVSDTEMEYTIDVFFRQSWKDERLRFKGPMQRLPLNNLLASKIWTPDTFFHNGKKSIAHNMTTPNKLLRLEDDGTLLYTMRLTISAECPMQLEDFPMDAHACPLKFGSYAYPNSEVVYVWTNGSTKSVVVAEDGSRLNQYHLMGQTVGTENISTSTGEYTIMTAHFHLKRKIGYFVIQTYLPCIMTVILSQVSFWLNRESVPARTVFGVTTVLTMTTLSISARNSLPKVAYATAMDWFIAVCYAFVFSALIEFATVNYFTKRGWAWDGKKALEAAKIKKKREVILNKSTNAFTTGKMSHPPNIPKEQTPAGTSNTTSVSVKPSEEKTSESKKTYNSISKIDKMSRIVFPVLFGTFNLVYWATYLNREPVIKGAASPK
T1 sequence (P28472 26-473): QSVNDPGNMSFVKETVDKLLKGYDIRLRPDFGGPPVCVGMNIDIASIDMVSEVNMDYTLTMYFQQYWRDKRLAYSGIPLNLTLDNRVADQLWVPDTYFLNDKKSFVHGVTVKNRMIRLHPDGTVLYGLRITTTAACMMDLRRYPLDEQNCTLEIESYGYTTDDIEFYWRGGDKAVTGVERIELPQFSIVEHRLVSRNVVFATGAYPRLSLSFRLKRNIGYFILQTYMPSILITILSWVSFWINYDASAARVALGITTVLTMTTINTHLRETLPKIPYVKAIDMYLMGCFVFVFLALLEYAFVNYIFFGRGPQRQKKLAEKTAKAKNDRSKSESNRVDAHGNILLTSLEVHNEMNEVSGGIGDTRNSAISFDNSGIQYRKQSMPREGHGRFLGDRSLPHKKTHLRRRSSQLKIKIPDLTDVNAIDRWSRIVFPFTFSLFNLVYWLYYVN
T1 sequence (P18507 40-475): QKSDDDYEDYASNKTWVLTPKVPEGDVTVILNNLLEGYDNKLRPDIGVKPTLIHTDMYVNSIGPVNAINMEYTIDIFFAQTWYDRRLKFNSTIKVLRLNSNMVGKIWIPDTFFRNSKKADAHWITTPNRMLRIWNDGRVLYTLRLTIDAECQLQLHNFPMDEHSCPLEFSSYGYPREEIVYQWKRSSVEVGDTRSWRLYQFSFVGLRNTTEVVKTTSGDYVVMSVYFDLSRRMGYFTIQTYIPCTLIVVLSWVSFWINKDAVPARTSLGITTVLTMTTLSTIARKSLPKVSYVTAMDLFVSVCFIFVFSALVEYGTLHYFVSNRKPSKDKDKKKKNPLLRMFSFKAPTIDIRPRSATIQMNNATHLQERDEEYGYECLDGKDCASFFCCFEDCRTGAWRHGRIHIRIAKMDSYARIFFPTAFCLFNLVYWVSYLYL
Protocol: Xenopus oocytes were stored in incubation media (pH 7.5), consisting of ND96 supplemented with 2 mM sodium pyruvate, […] gentamycin, and 10 mL heat inactivated HyClone horse serum. Stage 4 to 5 oocytes were injected with 40 nL of cDNA coding for α5, β3, and γ2 subunits in a ratio of 1:1:10, utilizing a Drummond Nanoject III. Injected oocytes were stored at 18 °C and used in electrophysiology studies within 2–7 days of injection.
Whole cell two-electrode voltage clamp (TEVC) recording were conducted on oocytes in the presence of GABA, according to previously reported methods. Oocytes were voltage clamped at a membrane potential of −70 mV. The oocyte recording chamber was continuously perfused with modified bath solution (MBS) with select compound (10 µM) and GABA (10 µM), with a final concentration of 1% DMSO [22, 44]. […] Oocytes were perfused at a rate of 3 mL/min. Electrophysiology recordings were conducted in triplicate compound for each compound. The change of GABAAR activity was determined by comparison of GABAAR potentiation to the EC20 with control saline in the presence of GABA.
Pharmacokinetic parameters were calculated using noncompartmental analysis. Elimination half-life (T1/2) was calculated with R software from the linear regression of the terminal phase of the log serum concentration-time curve. The AUC0→24 was calculated with OriginLab software by trapezoidal analysis of the serum concentration-time plot. Cmax and Tmax were determined directly from observed data. Data are expressed as mean ± SEM. Statistical significance between AUC0→24 among test groups was calculated with an independent t-test (GraphPad software, San Diego, CA, USA). Time to LORR was analyzed by repeated measured ANOVA. Tolerance was determined by mean split in LORR response and confirmed with paired t-test (Week 1 vs. Week 8). Statistical significance of serum concentrations for individual time points was calculated using a two-way analysis of variance (ANOVA) analysis. Post hoc Bonferroni tests were performed when justified. Statistical significance of electrophysiology results compound GABAergic modulation was determined using a paired t-test (Vehicle control vs. Compound, GraphPad software, San Diego CA, USA). p < 0.05 was considered significant.

[4] = set-up: method as in PMID 27951743; conditions: rats; cited from earlier work

O=C1c2c(O)cc(O)cc2O[C@H](c2cc(O)c(O)c(O)c2)[C@H]1O [DHM, Dihydromyricetin]
Pgp interaction [1]: Pgp substate and inhibitor
cellular permeability [2]: 1.84 ×10⁻⁶ cm/s
GABAAR potentiation [3]: +43.2%
GABAAR potentiation ([3]; mean ± SEM): +43.2 ± 5.6
oral absolute bioavailability [4]: 4.02%
